Patent US20100113540A1, “Azole and Thiazole Derivatives and Their Use” (ARGENTA DISCOVERY LIMITED, priority 2005, published 2010)
Counter-ions that a name gives are not always drawn.

The compounds below were run against T1, M3 muscarinic receptor (Homo sapiens, UniProt P20309) (assay: Muscarinic receptor radioligand binding assay ([3H]-NMS), M3). Settings: cell membranes expressing human M3 receptor.
T1 construct: purchased
Protocol: The inhibitory effects of compounds of the present invention at the M3 muscarinic receptor and (in the case of Example 77) the β2 adrenergic receptor, were determined by the following binding assays:
Radioligand binding studies utilising [^3H]-N-methyl scopolamine ([^3H]-NMS) and commercially available cell membranes expressing the human muscarinic receptors (M2 and M3) were used to assess the affinity of muscarinic antagonists for M2 and M3 receptors. Membranes in TRIS buffer were incubated in 96-well plates with [^3H]-NMS and M3 antagonist at various concentrations for 3 hours. Membranes and bound radioligand were then harvested by filtration and allowed to dry overnight. Scintillation fluid was then added and the bound radioligand counted using a Can berra Packard Topcount scintillation counter

T1 sequence (P20309 whole entry): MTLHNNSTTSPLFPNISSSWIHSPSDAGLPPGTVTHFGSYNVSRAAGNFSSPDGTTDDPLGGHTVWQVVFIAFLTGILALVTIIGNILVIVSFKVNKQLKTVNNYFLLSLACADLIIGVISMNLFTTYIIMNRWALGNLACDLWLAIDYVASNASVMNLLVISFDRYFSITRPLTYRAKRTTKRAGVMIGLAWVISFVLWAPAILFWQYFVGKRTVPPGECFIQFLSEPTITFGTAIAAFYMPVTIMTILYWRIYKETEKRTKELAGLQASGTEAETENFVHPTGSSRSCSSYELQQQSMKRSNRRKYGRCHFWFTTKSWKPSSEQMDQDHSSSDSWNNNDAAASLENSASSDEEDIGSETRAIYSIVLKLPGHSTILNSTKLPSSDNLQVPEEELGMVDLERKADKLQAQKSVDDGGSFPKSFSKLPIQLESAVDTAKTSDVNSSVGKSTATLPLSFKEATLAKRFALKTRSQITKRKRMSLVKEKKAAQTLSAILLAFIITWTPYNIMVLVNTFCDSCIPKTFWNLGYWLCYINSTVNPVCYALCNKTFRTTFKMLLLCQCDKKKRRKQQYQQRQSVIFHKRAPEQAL

Structure (SMILES)	Ki [nM]
O[C@@](c1ccccc1)(c1ncc(C[N+]2(CCCOc3ccccc3)CCCC2)o1)C1CCCCC1 [Example 41, 1-[2-(Cyclohexyl-hydroxy-phenyl-methyl)-oxazol-5-ylmethyl]-1-(3-phenoxy-propyl)-pyrrolidinium bromide]	> 10
C[N+](C)(CCCCOc1ccccc1)Cc1cnc([C@](O)(c2ccccc2)C2CCCCC2)o1 [Example 43, [2-((R)-Cyclohexyl-hydroxy-phenyl-methyl)-oxazol-5-ylmethyl]-dimethyl-(4-phenoxy-butyl)-ammonium bromide]	< 1
C[N+](C)(CCOCc1ccccc1)Cc1cnc([C@](O)(c2ccccc2)C2CCCCC2)o1 [Example 44, (2-Benzyloxy-ethyl)-[2-((R)-cyclohexyl-hydroxy-phenyl-methyl)-oxazol-5-ylmethyl]-dimethyl-ammonium bromide]	< 1
CN(CCCCCCCC[N+](C)(C)Cc1cnc([C@](O)(c2ccccc2)C2CCCCC2)o1)C(=O)OC(C)(C)C [Example 47, [8-(tert-butoxycarbonyl-methyl-amino)-octyl]-[2-((R)-cyclohexyl-hydroxy-phenyl-methyl)-oxazol-5-ylmethyl]-dimethyl-ammonium methanesulfonate]	1 to 10
C[N+](C)(CCCc1ccccc1)Cc1cnc([C@](O)(c2ccccc2)C2CCCCC2)o1 [Example 48, [2-((R)-cyclohexyl-hydroxy-phenyl-methyl)-oxazol-5-ylmethyl]-dimethyl-(3-phenyl-propyl)-ammonium formate]	< 1
C[N+](C)(CCOc1ccccc1)Cc1cnc([C@](O)(c2ccccc2)C2CCCCC2)o1 [Example 49, [2-((R)-cyclohexyl-hydroxy-phenyl-methyl)-oxazol-5-ylmethyl]-dimethyl-(2-phenoxy-ethyl)-ammonium formate]	< 1
CN(Cc1ccc(CC[N+](C)(C)Cc2cnc([C@](O)(c3ccccc3)C3CCCCC3)o2)cc1)C(=O)OC(C)(C)C [Example 50, (2-{4-[(Tert-butoxycarbonyl-methyl-amino)-methyl]-phenyl}-ethyl)-[2-((R)-cyclohexyl-hydroxy-phenyl-methyl)-oxazol-5-ylmethyl]-dimethyl-ammonium methanesulfonate]	> 10
C[N+](C)(CC(=O)Nc1ccon1)Cc1cnc([C@](O)(c2ccccc2)C2CCCCC2)o1 [Example 52, [2-((R)-Cyclohexyl-hydroxy-phenyl-methyl)-oxazol-5-ylmethyl]-(isoxazol-3-ylcarbamoylmethyl)-dimethyl-ammonium bromide]	1 to 10
COC(=O)c1ccc(OCCC[N+](C)(C)Cc2cnc([C@](O)(c3ccccc3)C3CCCCC3)o2)cc1 [Example 53, [2-((R)-Cyclohexyl-hydroxy-phenyl-methyl)-oxazol-5-ylmethyl]-[3-(4-methoxycarbonyl-phenoxy)-propyl]-dimethyl-ammonium bromide]	1 to 10
C[N+](C)(CCCOc1ccc(S(N)(=O)=O)cc1)Cc1cnc([C@](O)(c2ccccc2)C2CCCCC2)o1 [Example 54, [2-((R)-Cyclohexyl-hydroxy-phenyl-methyl)-oxazol-5-ylmethyl]-dimethyl-[3-(4-sulfamoyl-phenoxy)-propyl]-ammonium bromide]	1 to 10
C[N+](C)(CCCOc1ccc(Cl)cc1)Cc1cnc([C@](O)(c2ccccc2)C2CCCCC2)o1 [Example 56, [3-(4-Chloro-phenoxy)-propyl]-[2-((R)-cyclohexyl-hydroxy-phenyl-methyl)-oxazol-5-ylmethyl]-dimethyl-ammonium bromide]	< 1
C[N+](C)(Cc1ccccc1)Cc1cnc([C@](O)(c2ccccc2)C2CCCC2)o1 [Example 59, Benzyl-[2-(cyclopentyl-hydroxy-phenyl-methyl)-oxazol-5-ylmethyl]-dimethyl-ammonium bromide]	1 to 10
CN(C)CCc1cnc(C(O)(c2ccccc2)c2ccccc2)o1 [Example 71, [5-(2-Dimethylamino-ethyl)-oxazol-2-yl]-diphenyl-methanol]	1 to 10
C[N+](C)(CCCOc1ccccc1)CCc1cnc(C(O)(c2ccccc2)c2ccccc2)o1 [Example 72, {2-[2-(Hydroxy-diphenyl-methyl)-oxazol-5-yl]-ethyl}-dimethyl-(3-phenoxy-propyl)-ammonium bromide]	< 1

The next lines start with the values.

Ki [nM]	Structure (SMILES)
1 to 10	COCCCCCCCC[N+](C)(C)Cc1cnc([C@](O)(c2ccccc2)C2CCCCC2)o1 [Example 42, [2-((R)-Cyclohexyl-hydroxy-phenyl-methyl)-oxazol-5-ylmethyl]-(8-methoxy-octyl)-dimethyl-ammonium formate]
< 1	C[N+](C)(CCCCc1ccccc1)Cc1cnc([C@](O)(c2ccccc2)C2CCCCC2)o1 [Example 45, [2-((R)-Cyclohexyl-hydroxy-phenyl-methyl)-oxazol-5-ylmethyl]-dimethyl-(4-phenyl-butyl)-ammonium bromide]
< 1	C[N+](C)(CCCOc1ccc(F)cc1)Cc1cnc([C@](O)(c2ccccc2)C2CCCCC2)o1 [Example 46, [2-((R)-Cyclohexyl-hydroxy-phenyl-methyl)-oxazol-5-ylmethyl]-[3-(4-fluoro-phenoxy)-propyl]-dimethyl-ammonium bromide]
1 to 10	C[N+](C)(CCCOc1ccc(C(N)=O)cc1)Cc1cnc([C@](O)(c2ccccc2)C2CCCCC2)o1 [Example 51, [3-(4-Carbamoyl-phenoxy)-propyl]-[2-((R)-cyclohexyl-hydroxy-phenyl-methyl)-oxazol-5-ylmethyl]-dimethyl-ammonium bromide]
< 1	Cc1ccc(OCCC[N+](C)(C)Cc2cnc([C@](O)(c3ccccc3)C3CCCCC3)o2)cc1 [Example 55, [2-((R)-Cyclohexyl-hydroxy-phenyl-methyl)-oxazol-5-ylmethyl]-dimethyl-(3-p-tolyloxy-propyl)-ammonium bromide]
< 1	C[N+](C)(CCCOc1ccc(Cl)c(Cl)c1)Cc1cnc([C@](O)(c2ccccc2)C2CCCCC2)o1 [Example 57, [2-((R)-Cyclohexyl-hydroxy-phenyl-methyl)-oxazol-5-ylmethyl]-[3-(3,4-dichloro-phenoxy)-propyl]-dimethyl-ammonium bromide]
1 to 10	C[N+]1(Cc2cnc(C(O)(c3ccccc3)c3ccccc3)o2)CCC(Oc2ccccc2)CC1 (stereo not drawn) [Example 58, 1-[2-(Hydroxy-diphenyl-methyl)-oxazol-5-ylmethyl]-1-methyl-4-phenoxy-piperidinium bromide]
< 1	CNCCCCCCCC[N+](C)(C)Cc1cnc([C@](O)(c2ccccc2)C2CCCCC2)o1 [Example 61, [2-((R)-cyclohexyl-hydroxy-phenyl-methyl)-oxazol-5-ylmethyl]-dimethyl-(8-methylamino-octyl)-ammonium methanesulfonate hydrochloride salt]
< 1	CNCc1ccc(CC[N+](C)(C)Cc2cnc([C@](O)(c3ccccc3)C3CCCCC3)o2)cc1 [Example 62, [2-((R)-cyclohexyl-hydroxy-phenyl-methyl)-oxazol-5-ylmethyl]-dimethyl-[2-(4-methylaminomethyl-phenyl)-ethyl]-ammonium methanesulfonate hydrochloride]
< 1	C[N+](C)(CCCOc1ccccc1)CCc1cnc(C(O)(c2ccccc2)C2CCCCC2)o1 (stereo not drawn) [Example 65, {2-[2-(Cyclohexyl-hydroxy-phenyl-methyl)-oxazol-5-yl]-ethyl}-dimethyl-(3-phenoxy-propyl)-ammonium bromide]
